Experimental data taken from PMC8228365, “Degradation Products of Tryptophan in Cell Culture Media: Contribution to Color and Toxicity” (International Journal of Molecular Sciences, 2021).
Read-outs that look alike come from different tables or passages of the source.

What was measured:
CHOK1 GS cells = assay: CellTiter-Glo cytotoxicity assay in CHOK1 GS cell line; format: cell-based, Chinese hamster; conditions: Cricetulus griseus
Method: To assay the potential toxicity induced in the CHO cell culture by the Trp degradation products found in this study, a cytotoxicity assay CellTiter-Glo® Luminescent Cell Viability Assay (Cat #G7572, Promega, Madison, WI, USA) was used, following the manufacturer’s instructions. Briefly, the cells were seeded with 25,000 viable cells per cavity of a 96-well opaque white cell culture plate (Thermo Fisher, Waltham, MA, USA) in 80 µL of a pre-warmed medium. […] A DMSO control was added in the same concentration range as the tryptophan degradation compounds were diluted.

CHO cells = assay: CHO cell toxicity summarised across the four CHO cell lines; format: cell-based, Chinese hamster; conditions: Cricetulus griseus, read-out: GI50 across all cell lines
Method: (§1) To assay the potential toxicity induced in the CHO cell culture by the Trp degradation products found in this study, a cytotoxicity assay CellTiter-Glo® Luminescent Cell Viability Assay (Cat #G7572, Promega, Madison, WI, USA) was used, following the manufacturer’s instructions. Briefly, the cells were seeded with 25,000 viable cells per cavity of a 96-well opaque white cell culture plate (Thermo Fisher, Waltham, MA, USA) in 80 µL of a pre-warmed medium. Tryptophan degradation compounds were added in triplicates to the cells, ranging from 1 mM to 46 nM. A DMSO control was added in the same concentration range as the tryptophan degradation compounds were diluted. The dose response curves were fitted with a 4PL model by GraphPad Prism v.7 (GraphPad Software, San Diego, CA, USA) after luminescence readout with an EnVision 2104 Multilabel Reader (Perkin Elmer, Waltham, MA, USA).

human cancer cell lines = tested on: human cancer cell lines; parameters: method as in PMID 24930832; conditions: cited from earlier work
CHOZN 6 cells = assay: CellTiter-Glo cytotoxicity assay in CHOZN 6 cell line; format: cell-based, Chinese hamster; conditions: Cricetulus griseus, read-out: [GI50] CHOZN 6
Method: as §1

[1] = Color measurement (ΔE*) of standards spiked into feed; format: physicochemical; conditions: theoretical 500 µM, 1% DMSO, ΔE* > 1 deemed significant
Method: (§2) Compounds were dissolved in DMSO at 50 mM and then spiked into the solutions to achieve a final compound concentration of 500µM. Some of the tested compounds formed a precipitate immediately upon spiking of the DMSO solution. As the precipitates in solution can interfere with the absorption measurement, each sample was centrifuged prior to taking absorption measurements, meaning that the final concentrations were not all at 500 µM. […] In stability experiments, eight of these nine compounds (all except 46) were present in at least one condition in the degraded water samples, and four of these nine compounds (28, 31, 38, and 46) were present in the degraded feed.
(§3) Absorbance measurements were taken in the range of 380 nm to 780 nm (20 nm steps) of 100 µL of the samples in four technical replicates (Envision, Perkin Elmer, Waltham, MA, USA). From the absorbance values, the change in color was calculated using L*a*b* and ΔE* values according to DIN 5033-3 and DIN 6174 norms. The CIE 1931 standard observer (2°) and the D65 illuminant were selected.
(§4) Chemical standards were prepared as 50 mM stocks in DMSO and then spiked into the aqueous solutions (either water or feed) to achieve a theoretical compound concentration of 500 µM (1% DMSO). The solutions were centrifuged, and the absorbance measurements of these solutions was measured and converted to ΔE* values as described above. The control condition was pure DMSO (1% v/v).

CHOZN 10 cells = assay: CellTiter-Glo cytotoxicity assay in CHOZN 10 cell line; format: cell-based, Chinese hamster; conditions: Cricetulus griseus, read-out: [GI50] CHOZN 10
Method: as §1

CHOK1 cells = assay: CellTiter-Glo cytotoxicity assay in CHOK1 cell line; format: cell-based, Chinese hamster; conditions: Cricetulus griseus
Method: as §1

[2] = Color measurement (ΔE*) of standards spiked into water; format: physicochemical; conditions: theoretical 500 µM, 1% DMSO, ΔE* > 1 deemed significant
Method: as §2, §3, §4

bacteria = tested on: bacteria; parameters: method as in PMID 24930832; conditions: cited from earlier work
[3] = tested on: cancerous and non-cancerous human cell lines; parameters: method as in PMID 28720329, PMID 22819942, PMID 32792961; conditions: wide range of human cell lines; cited from earlier work

Row | Structure (SMILES) | GI50 (CHOK1 GS cells; CHO-K1, CHOK1 GS cell line, 1 mM to 46 nM, 4PL fit, read-out: [GI50] CHOK1 GS) [µM] | GI50 (CHO cells; across all four CHO cell lines) [µM] | toxicity in human cancer cell lines (human cancer cell lines) | GI50 (CHOZN 6 cells; CHOZN 6 cell line, 1 mM to 46 nM, 4PL fit) [µM] | Color change as measured by ΔE* in feed [1] | GI50 (CHOZN 10 cells; CHOZN 10 cell line, 1 mM to 46 nM, 4PL fit) [µM] | GI50 (CHOK1 cells; CHO-K1, CHOK1 cell line, 1 mM to 46 nM, 4PL fit, read-out: [GI50] CHOK1) [µM] | Color change as measured by ΔE* in water [2] | antibacterial activity (bacteria) | toxicity against cancerous and non-cancerous human cell lines [3] | GI50 (CHOK1 GS cells; CHO-K1, read-out: [GI50] CHOK1 GS) [µM] | GI50 (CHO cells; CHO) [µM] | GI50 (CHOZN 6 cells) [µM] | GI50 (CHOZN 10 cells) [µM] | GI50 (CHOK1 cells; CHO-K1, read-out: [GI50] CHOK1) [µM]
1 | c1ccc2c(-c3nccc4c3[nH]c3ccccc34)c[nH]c2c1 [Compound 34, 1-(1H-Indol-3-yl)-9H-pyrido[3,4-b]indole] | 24 | 10 to 22 | some toxicity | 12.3 | significant color change | 13.1 | 10.6 | significant color change | most potent as an antibacterial agent |  |  |  |  |  | 
2 | O=C1c2ccccc2-n2c1nc1ccccc1c2=O [Compound 39, Tryptanthrin] |  |  |  |  | significant color change |  |  | significant color change |  | low micromolar toxicity | < 0.13 | ≤ 1.1 | 1.1 | 1.05 | 0.2
